Laboratory results from patent publication US20240158446A1, “CYCLIC COMPOUND HAVING SELECTIVE INHIBITORY ACTION ON KRAS OVER HRAS AND NRAS” (CHUGAI SEIYAKU KABUSHIKI KAISHA, priority 2021, published 2024).
Like-named read-outs stand apart in the source and are kept apart here. *1 amine or outer side, *2 acyl side, *3 side chain or, on linkers, in order; H or OH if unused. Where a SMILES comes first, the peptide text is derived from it. Bridges are numbered along the chain shown (N, C = ends). [ ]: non-standard residue; d: D form. The star is where a group is joined. hPhe(3-Cl-4-CF3) = N[C@@H](CCc1ccc(C(F)(F)F)c(Cl)c1)C(=O)O; NPrPhe(4-CF3) = CCCN[C@@H](Cc1ccc(C(F)(F)F)cc1)C(=O)O; X28 = COCCCN([C@@H](Cc1ccc(C)cc1)C(=O)[*:2])[*:1]; NMeGly(cPent) = CN[C@H](C(=O)O)C1CCCC1; Aze(3S-Me) = C[C@H]1CN[C@@H]1C(=O)O; NMeD = CN[C@@H](CC(=O)O)C(=O)O; NMeL = CN[C@@H](CC(C)C)C(=O)O; Morpholide = C1CN(*)CCO1; NMeA = CN[C@@H](C)C(=O)O; Ac5c = NC1(C(=O)O)CCCC1; Aze = O=C(O)[C@@H]1CCN1; Sar = CNCC(=O)O

Columns and labels:
[1] = target: GDP-bound NRAS wild-type protein (Homo sapiens, UniProt P01111); assay: Binding to NRAS by surface plasmon resonance (SPR), Single Cycle Kinetics; conditions: for NRAS/KRAS (ratio of KD value for NRAS to KD value for KRAS): SPR, GDP-bound NRAS wild-type protein vs GDP-bound KRAS wild-type protein
Chain of GDP-bound NRAS wild-type protein (P01111 whole entry): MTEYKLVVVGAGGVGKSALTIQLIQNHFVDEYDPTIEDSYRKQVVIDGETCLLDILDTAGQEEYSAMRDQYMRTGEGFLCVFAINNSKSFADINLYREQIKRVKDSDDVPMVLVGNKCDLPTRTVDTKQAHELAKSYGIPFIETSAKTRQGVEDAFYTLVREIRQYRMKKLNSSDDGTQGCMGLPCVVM

[2] = target: GDP-bound HRAS wild-type protein (Homo sapiens, UniProt P01112); assay: Binding to HRAS by surface plasmon resonance (SPR), Single Cycle Kinetics; conditions: for HRAS/KRAS (ratio of KD value for HRAS to KD value for KRAS): SPR, GDP-bound HRAS wild-type protein vs GDP-bound KRAS wild-type protein
Chain of GDP-bound HRAS wild-type protein (P01112 whole entry): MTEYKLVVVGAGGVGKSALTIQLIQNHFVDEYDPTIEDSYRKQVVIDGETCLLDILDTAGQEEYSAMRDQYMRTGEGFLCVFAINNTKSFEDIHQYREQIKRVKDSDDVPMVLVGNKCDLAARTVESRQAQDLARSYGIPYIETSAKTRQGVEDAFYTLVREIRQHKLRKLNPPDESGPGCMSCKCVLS

[3] = target: GDP-bound KRAS wild-type protein (Homo sapiens, UniProt P01116); assay: Binding to KRAS by surface plasmon resonance (SPR), Single Cycle Kinetics; conditions: GDP-bound KRAS wild-type protein, read-out: KRAS KD
Chain of GDP-bound KRAS wild-type protein (P01116 whole entry): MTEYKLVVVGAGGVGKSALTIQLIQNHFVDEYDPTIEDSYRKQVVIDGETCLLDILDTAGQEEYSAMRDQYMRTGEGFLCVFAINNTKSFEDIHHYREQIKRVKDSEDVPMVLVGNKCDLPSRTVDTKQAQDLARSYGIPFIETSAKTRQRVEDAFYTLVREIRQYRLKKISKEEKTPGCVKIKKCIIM

[4] = SPR Single Cycle Kinetics, 1:1 binding model

SMILES	Kd ([3]; SPR, Single Cycle Kinetics) [nM]	Kd [3, 4] [nM]	NRAS/KRAS (ratio of KD value for NRAS to KD value for KRAS) [1]	HRAS/KRAS (ratio of KD value for HRAS to KD value for KRAS) [2]	NRAS/KRAS (ratio of KD value with respect to GDP-bound NRAS wild-type protein to KD value with respect to KRAS) ([1]; SPR KD ratio NRAS/KRAS, class symbols)	HRAS/KRAS (ratio of KD value with respect to GDP-bound HRAS wild-type protein to KD value with respect to KRAS) ([2]; SPR KD ratio HRAS/KRAS, class symbols)
CCCN1C(=O)CN(C)C(=O)[C@@H]2CCCN2C(=O)[C@H]([C@@H](C)CC)NC(=O)[C@H](CC(C)C)N(C)C(=O)C[C@@H](C(=O)N2CCOCC2)N(C)C(=O)[C@H](C2CCCC2)N(C)C(=O)C2(CCCC2)NC(=O)[C@@H]2CCCN2C(=O)[C@H](CCc2ccc(C(F)(F)F)c(Cl)c2)NC(=O)CN(C)C(=O)[C@@H]1Cc1ccc(C(F)(F)F)cc1 [PP0165] ([NMeL]IP[Sar][NPrPhe(4-CF3)][Sar][hPhe(3-Cl-4-CF3)]P[Ac5c][NMeGly(cPent)][NMeD]-Morpholide; lactam N-11)		2.9	B (a compound having 3 or more and less than 10 is denoted as B)	B (a compound having 3 or more and less than 10 is denoted as B)		
CCCN1C(=O)[C@@H]2CCN2C(=O)[C@H](C)N(C)C(=O)[C@H]([C@@H](C)CC)NC(=O)[C@H](CC(C)C)N(C)C(=O)C[C@@H](C(=O)N2CCOCC2)N(C)C(=O)[C@H](C2CCCC2)N(C)C(=O)C2(CCCC2)NC(=O)[C@@H]2CCCN2C(=O)[C@H](CCc2ccc(C(F)(F)F)c(Cl)c2)NC(=O)CN(C)C(=O)[C@@H]1Cc1ccc(C(F)(F)F)cc1 [PP0053] ([NMeL]I[NMeA][Aze][NPrPhe(4-CF3)][Sar][hPhe(3-Cl-4-CF3)]P[Ac5c][NMeGly(cPent)][NMeD]-Morpholide; lactam N-11)		0.12	C (A compound having a KD ratio of 0.1 or more and less than 3 is denoted as C)	C (A compound having a KD ratio of 0.1 or more and less than 3 is denoted as C)		
CC[C@H](C)[C@@H]1NC(=O)[C@H](CC(C)C)N(C)C(=O)C[C@@H](C(=O)N2CCOCC2)N(C)C(=O)[C@H](C2CCCC2)N(C)C(=O)C2(CCCC2)NC(=O)[C@@H]2CCCN2C(=O)[C@H](CCc2ccc(C(F)(F)F)c(Cl)c2)NC(=O)CN(C)C(=O)[C@H](Cc2ccc(C)cc2)N(CCCOC)C(=O)[C@@H]2CCN2C(=O)[C@H](C)N(C)C1=O [PP0093] ([NMeL]I[NMeA][Aze][X28][Sar][hPhe(3-Cl-4-CF3)]P[Ac5c][NMeGly(cPent)][NMeD]-Morpholide; lactam N-11)		0.076	C (A compound having a KD ratio of 0.1 or more and less than 3 is denoted as C)	B (a compound having 3 or more and less than 10 is denoted as B)		
CCCN1C(=O)[C@@H]2[C@@H](C)CN2C(=O)[C@H](C)N(C)C(=O)[C@H]([C@@H](C)CC)NC(=O)[C@H](CC(C)C)N(C)C(=O)C[C@@H](C(=O)N2CCOCC2)N(C)C(=O)[C@H](C2CCCC2)N(C)C(=O)C2(CCCC2)NC(=O)[C@@H]2CCCN2C(=O)[C@H](CCc2ccc(C(F)(F)F)c(Cl)c2)NC(=O)CN(C)C(=O)[C@@H]1Cc1ccc(C(F)(F)F)cc1 [PP0141] ([NMeL]I[NMeA][Aze(3S-Me)][NPrPhe(4-CF3)][Sar][hPhe(3-Cl-4-CF3)]P[Ac5c][NMeGly(cPent)][NMeD]-Morpholide; lactam N-11)		0.55	C (A compound having a KD ratio of 0.1 or more and less than 3 is denoted as C)	B (a compound having 3 or more and less than 10 is denoted as B)		

The next lines start with results.

Kd ([3]; SPR, Single Cycle Kinetics) [nM]	Kd [3, 4] [nM]	SMILES	NRAS/KRAS (ratio of KD value for NRAS to KD value for KRAS) [1]	HRAS/KRAS (ratio of KD value for HRAS to KD value for KRAS) [2]	NRAS/KRAS (ratio of KD value with respect to GDP-bound NRAS wild-type protein to KD value with respect to KRAS) ([1]; SPR KD ratio NRAS/KRAS, class symbols)	HRAS/KRAS (ratio of KD value with respect to GDP-bound HRAS wild-type protein to KD value with respect to KRAS) ([2]; SPR KD ratio HRAS/KRAS, class symbols)
0.72		CCC[C@H]1C(=O)N[C@@H]([C@@H](C)CC)C(=O)N(C)CC(=O)N(C)[C@H]2C/C=C\CCN(C2=O)[C@@H](Cc2ccc(C)cc2)C(=O)N(C)CC(=O)N[C@@H](CCc2cc(F)c(C(F)(F)F)c(F)c2)C(=O)N2CC3(CC3)C[C@H]2C(=O)NC2(CC(C)(C)C2)C(=O)N(C)[C@@H](CC(F)(F)F)C(=O)N(C)[C@H](C(=O)N(C)C)CC(=O)N1C [PP3003]	AA (a compound having 20 or more is denoted as AA)	A (a compound having 10 or more and less than 20 is denoted as A)		
0.5		CCC[C@H]1C(=O)N[C@@H]([C@@H](C)CC)C(=O)N(C)CC(=O)N(C)[C@H]2C/C=C\CCN(C2=O)[C@@H](Cc2ccc(C(F)(F)F)cc2)C(=O)N(C)CC(=O)N[C@@H](CCc2ccc(C(F)(F)F)c(Cl)c2)C(=O)N2CC3(CC3)C[C@H]2C(=O)NC2(CC(C)(C)C2)C(=O)N(C)[C@@H]([C@@H](C)CC)C(=O)N(C)[C@H](C(=O)N(C)C)CC(=O)N1C [PP2983]	AA (a compound having 20 or more is denoted as AA)	A (a compound having 10 or more and less than 20 is denoted as A)		
	0.14	CCC[C@H]1C(=O)N[C@@H]([C@@H](C)CC)C(=O)N(C)CC(=O)N(C)[C@H]2C/C=C\CCN(C2=O)[C@@H](Cc2ccc(C)cc2)C(=O)N(C)CC(=O)N[C@@H](CCc2ccc(Cl)c(C(F)(F)F)c2)C(=O)N2C[C@H](OCC)C[C@H]2C(=O)NC2(CC(C)(C)C2)C(=O)N(C)[C@@H](C2CCCC2)C(=O)N(C)[C@H](C(=O)N(C)C)CC(=O)N1C [PP2786]			A (a compound having 10 or more and less than 20 is denoted as A)	A (a compound having 10 or more and less than 20 is denoted as A)
